We go through 1 compound from patent US8759363B2, “Quinazoline-based T cell proliferation inhibitors” (Yissum Research Development Company of the Hebrew …, priority 2010, dated 2014).

“Also recorded” adds a separate entry of the source. Where two headings read alike, the source gives them in different places. A value given as a limit tells only on which side of the number the result lay.

The subject of assay [1] is MDA-MB-231. In words: MDA-MB-231 proliferation, BrdU uptake. As to conditions: Homo sapiens. In kind it is cell-based. The method, then:
(§1) Cells were depleted of fetal calf serum (FCS) for 12 hours. They were then stimulated to proliferate by addition of ConA (10 μg/ml) for PBMC from healthy individuals and for Jurkat cells, FCS (10%) for HEK293 and A375 cells, PDGF (30 ng/ml) for NIH 3T3 cells, and EGF (30 ng/ml) for MDA-MB-231, Cells (1×10^5) were cultured in 96-well plates for 3 days in the presence or absence of inhibitors at the concentrations specified in the text. Each condition was tested in duplicate wells.
(§2) Proliferation was assessed by BrdU incorporation using a colorimetric ELISA kit (Roche, Germany). Subsequent to labeling with 10 μM BrdU, DNA was denatured and the cells were incubated with anti-BrdU-POD, prior to the addition of colorimetric substrate (TMB). The reaction product was quantified by measuring absorbance at 450 nm in an ELISA plate reader (ELx800 BIO-TEK Instruments Inc.).
(§3) To characterize the mode of action of 2 (S101) in more detail, we first examined whether 2 inhibits non-hematopoietic cell lines. We studied the effect of 2 on the growth of four cell lines: NIH 3T3 (mouse embryonic fibroblasts), A-431 (human vulval carcinoma cells), MDA-MB-468 (human breast carcinoma cells), and PANC-1 (human pancreatic carcinoma cells) (FIGS. 1A-B). We also tested the inhibitors on human keratinocytes. […]

The test system of assay [2] is PC-3, HEK293, NIH-3T3, A375, MDA-MB-231. In words: BrdU uptake by non-hematopoietic cell lines compared with PBMC and Jurkat. As to conditions: stimulated and non-stimulated cells. The format is cell-based. As for the experimental part: as §1, §2, §3
For assay [3], the system named is IL-2 secretion by Jurkat and PBMC cells. Description: IL-2 secretion after stimulation, ELISA. In kind it is cell-based, human. As to conditions: anti-TCR, anti-CD28, PMA, ionomycin, ConA stimulation; up to 5 μM inhibitor. As for the experimental part: Jurkat or PBMC cells were treated for 12 h with 1 μM, 0.5 μM or no inhibitor. Cells (1×10^6) were plated in 24-well plates (Nunc) and stimulated by C305 (dilution 1:500), anti-CD28 (1:100), PMA (50 ng/ml) or ionomycin (1 μM) for 12 h. Alternately, cells were stimulated for 24, 48 and 72 h in MLR. After stimulation cells were centrifuged at 130×g for 5 minutes at room temperature.
Supernatants were collected and IL-2 was assayed using the IL-2 ELISA kit (BioSource International USA, KH0022) according to the manufacturer's instructions. Absorbance was read at 450 nm in an ELISA plate reader (ELx800 BIO-TEK Instruments Inc.).
Jurkat cells, which originate from leukemia, divide with no need of exogenous IL-2 stimulation since they produce their own, whereas PBMC proliferation requires exogenous IL-2 for growth. As expected, IL-2 secretion levels were lower in cells isolated from the blood (PBMC) than in Jurkat cells (FIGS. 5A-B). We analyzed the effect of 2 on IL-2 secretion in both Jurkat (FIG. 5A) and PBMC (FIG. 5B) cells, using a variety of T cell stimuli. Cells were stimulated with an antibody to the TCR alone or in combination with anti-CD28 or phorbol 12-myristate 13-acetate (PMA). In order to bypass the TCR, we also stimulated the cells with a combination of ionomycin, PMA and anti-CD28 (FIG. 5A). […]

The target in assay [4] is T1, ZAP-70 (Homo sapiens, UniProt P43403).
T1 construct: We also immunoprecipitated the ZAP-70 kinase from the treated/untreated cells; endogenous in cells; host or cells: Jurkat
In words: SLP-76 kinase assay with ZAP-70 immunoprecipitated from treated Jurkat cells. The format is cell-based. As to conditions: ZAP-70 from Jurkat cells treated 16 h, recombinant SLP-76 substrate, dose-dependent. As for the experimental part: ZAP-70 was immunoprecipitated as described above. The immune complexes were washed 2 times with lysis buffer and 2 times with kinase buffer (50 mM Tris pH 7.5, 100 mM NaCl and 10 mM MgCl2). The beads were resuspended in 30 μl of kinase buffer containing 3 μg of His-tagged, full-length human SLP-76 protein (kindly provided by Dr. Yablonski, Technion, Israel), and the kinase reactions were initiated by the addition of 10 μl kinase buffer containing 5 μM ATP. The reactions proceeded for 15 min at 30° C. and were stopped by the addition of 6 μL EDTA (100 mM) and sample buffer. The results were analyzed by western blot [Yablonski, 1998]
Jurkat cells were treated with 2 for 16 h, and SLP-76 phosphorylation was measured by immunoprecipitation of SLP-76 protein followed by western blotting with an antibody to the phosphorylated tyrosines of the protein (FIG. 6A). We also immunoprecipitated the ZAP-70 kinase from the treated/untreated cells, and tested its ability to phosphorylate recombinant SLP-76 protein as substrate (FIG. 6B). […] Presumably the remaining SLP-76 activity was sufficient to allow IL-2 secretion.

Assay [5] deals with 2C (stimulated) cells. In words: MLR with resting control cells, stimulated 2C cells. The format is cell-based, mouse. As to conditions: 0.5 μM, 72 h MLR with IL-7; no inhibitor 3805. The text has this:
(§4) The aim of this test was to determine whether 2 affects only the proliferating cells or there is a general mechanism affecting all cell numbers. For this purpose we mixed 3 cell types: […]: BALB/c, 2C and OT1; […]: CB6F1, TEA and OT2. The OT1 and OT2 are splenocytes that were isolated from OT1 and OT2 mice (Jackson Laboratories, Bar Harbor, Me.),
(§5) Thus, the ability to monitor the fate of proliferation and resting cells by FACS was enabled due to the use of the MLR described above for CD4+ and CD8+ and the addition of OT2 and OT1 splenocytes, respectively.
(§6) Proliferating cells often secrete cytokines that induce survival of neighbouring cells; since the proliferation was expected to be inhibited we added 50 ng/ml of IL-7. This concentration is sufficient to keep the cells alive, but not to induce proliferation.
(§7) Irradiated Balb splenocytes were incubated for 72 h with 2C, and OT1 splenocytes in the presence of IL-7 W/O inhibitor.
(§8) The CD4+ and CD8+ were stimulated to proliferate, whereas in the absence of specific stimuli the OT1 and OT2 cell populations were resting, and theses cells were kept alive by the administration of IL-7. […] The number of 2C and OT1 cells that were treated with 0.5 μM 2 was 286 and 1148, respectively, while the number of 2C and OT1 cells that were treated with 0.5 μM 21 (control) was 4767 and 2468, respectively. This is depicted as a bar-graph in FIG. 8C.

The test system of assay [6] is OT1 (resting) cells. In words: MLR with resting control cells, resting OT1 cells. The format is cell-based, mouse. As to conditions: 0.5 μM, 72 h MLR with IL-7; no inhibitor 2459.
Source text: as §4, §5, §6, §7, §8

T1 sequence (P43403 whole entry): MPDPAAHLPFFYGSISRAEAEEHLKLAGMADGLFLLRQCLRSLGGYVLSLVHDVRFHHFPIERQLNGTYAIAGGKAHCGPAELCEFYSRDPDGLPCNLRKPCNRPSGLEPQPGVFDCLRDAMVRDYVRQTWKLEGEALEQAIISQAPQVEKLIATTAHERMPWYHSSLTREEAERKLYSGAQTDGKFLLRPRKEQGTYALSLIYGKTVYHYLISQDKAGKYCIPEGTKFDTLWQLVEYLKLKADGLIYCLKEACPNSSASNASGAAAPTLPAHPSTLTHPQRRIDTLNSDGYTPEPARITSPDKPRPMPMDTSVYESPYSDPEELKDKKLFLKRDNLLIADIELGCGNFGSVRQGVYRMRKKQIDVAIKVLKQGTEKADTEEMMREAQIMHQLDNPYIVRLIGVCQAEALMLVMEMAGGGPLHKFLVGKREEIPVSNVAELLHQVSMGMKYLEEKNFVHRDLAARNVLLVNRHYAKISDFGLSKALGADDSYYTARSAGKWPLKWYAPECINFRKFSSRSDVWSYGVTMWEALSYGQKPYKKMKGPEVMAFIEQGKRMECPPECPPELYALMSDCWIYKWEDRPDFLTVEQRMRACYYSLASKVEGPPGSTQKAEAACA

Take `COc1cc(-c2nc(Nc3ccc(C)cc3)c3ccccc3n2)cc(OC)c1OC` [Compound 2, N-p-tolyl-2-(3,4,5-trimethoxyphenyl)quinazolin-4-amine]: the IC50 in assay [1] (MDA-MB-231, EGF (30 ng/ml) activated, read-out: IC50 of stimulated cells) is > 10 µM; in assay [1] (MDA-MB-231, non-stimulated, read-out: IC50 of non-stimulated cells) it was > 10 µM. Further, the “IC50 values in various cells in comparison to IC50 for PBMC and Jurkat cells” value in assay [2] is on record as “higher by two orders of magnitude”. Moreover, the “effect on IL-2 levels in the medium” value in assay [3] is “no effect; also recorded: did not affect”. Moreover, in assay [4], the “activity of ZAP-70” value is “inhibited”. For the same compound, in assay [5], the “number of 2C (stimulated) cells” value came out at 286. The “number of OT1 (resting) cells” value in assay [6] was 1148.
